# Where two headings read alike, the source gives them in different places.
# Assays:
# [1] = cited from earlier work
# [2] = Solvent conversion rate in batch-wise hydration reaction of cyclohexene (H-ZSM-5 zeolite-A); assay type: physicochemical; details: 120° C.; for Solvent convertion rate: H-ZSM-5-A, 20 g solvent
# Method: The organic solvent used as a reaction solvent in the method of the present invention has a conversion rate of not more than 3% under the hydration reaction conditions of cyclohexene. The conversion rate of the organic solvent in the present invention is a conversion rate in the reaction of the organic solvent per se or the organic solvent with cyclohexene or cyclohexanol per 1 hour of batch reaction at the reaction temperature at which the hydration reaction of cyclohexene is carried out. In industrial working of the present invention, the solvent used for the reaction is separated from the product cyclohexanol and circulated for reuse.
# 30 g of the resulting H-ZSM-5 zeolite-A catalyst and 81 g of water were charged in a glass autoclave A and heated to 120° C. with stirring under application of a nitrogen pressure of 0.5 MPa. Separately, 61 g of cyclohexene and 20 g of isophorone were charged in a glass autoclave B and heated to 120° C. under application of a nitrogen pressure of 0.6 MPa. Thereafter, the cyclohexene/isophorone mixed liquid was sent under pressure from the glass autoclave B to the glass autoclave A, and the reaction was started. After the reaction for 1 hour, the stirring was stopped, and the oil phase was sampled and analyzed by gas chromatography. At the sampling, the reaction mixture separated to two phases of oil phase and aqueous phase immediately after stopping of stirring. Yield and selectivity of cyclohexanol were as follows.
# The hydration reaction of cyclohexene was carried out in the same manner as in Example 1, except that ethylene glycol monophenyl ether, phenethyl alcohol and 3,3,5-trimethylcyclohexanone were respectively used as the reaction solvents. The results of the reactions are shown in Table 1, and characteristics of the organic solvents used in this Example are shown in Table 2.
# The reaction was carried out in the same manner as in Example 1, except that benzyl alcohol was used as the solvent. Yield of cyclohexanol after each reaction time was as follows.
# [3] = Liquid-liquid distribution coefficient of cyclohexene at 120° C. and solvent effect index; assay type: physicochemical; details: for Solvent effect index: distribution coefficient in solvent-free system/in solvent-containing system; for Distribution coefficient of cyclohexene: molar fraction in oil phase/aqueous phase, cyclohexene/cyclohexanol/organic solvent/water 56.7/13.3/30/100 by weight
# Method: The organic solvent used in the present invention has a solvent effect index (defined below) of not less than 1.5. The solvent effect index in the present invention is defined to be a ratio of a distribution coefficient of cyclohexene in the absence of solvent at 120° C. and a distribution coefficient of cyclohexene in a solvent-containing system at 120° C. (distribution coefficient of cyclohexene in the absence of solvent/distribution coefficient of cyclohexene in a solvent-containing system), and it indicates an effect to make predominate the distribution of cyclohexene into an aqueous solution due to the presence of the organic solvent.
# Detailedly, the solvent effect index in the present invention is obtained in the following manner. Cyclohexene/cyclohexanol/organic solvent/water are charged at a weight ratio of 56.7/13.3/30/100, and the distribution coefficient of cyclohexene (molar fraction of cyclohexene in oil phase/molar fraction of cyclohexene in aqueous phase) is obtained from the liquid composition of both phases of the oil phase and the aqueous phase in an equilibrium state kept at 120° C. The ratio of the resulting distribution coefficient of cyclohexene and the distribution coefficient of cyclohexene in a solvent-free system (measured at 120° C. by charging cyclohexene/cyclohexanol/water at a weight ratio of 56.7/13.3/100), namely, the ratio of distribution coefficient in solvent-free system/distribution coefficient in solvent-containing system, is the solvent effect index in the present invention.
# Here, the distribution coefficient of cyclohexene is measured by the following method. That is, an oil and water at the above weight ratio are charged in a pressure container under a nitrogen pressure, and sufficiently stirred and mixed at a rising temperature of 120° C., followed by reducing the stirring speed and leaving at rest for a time long enough to reach an equilibrium state. Thereafter, each of the oil phase and the aqueous phase is sampled in a solvent such as 1,4-dioxane, and the compositions of both the oil phase and the aqueous phase are obtained from analysis by gas chromatography and a Karl Fischer moisture meter. Thus, the distribution coefficient of cyclohexene is measured.
# [4] = Solvent conversion rate in continuous fixed-bed flowing hydration reaction of cyclohexene; assay type: physicochemical; details: fixed-bed flow; for Solvent conversion rate: 30 wt % solvent, 124-134° C., 2 MPa
# Method: A continuous fixed-bed flowing reaction test of a cyclohexene hydration reaction was conducted under the following conditions using ethylene glycol monophenyl ether (EGMPE) as a reaction solvent. As a reaction apparatus, a stainless steel reaction vessel of 26.5 mm in internal diameter provided with a heating medium jacket was used. In the upper part of the reaction vessel, there were provided feed openings for water and oil, and in the lower part of the reaction vessel, oil and water in the mixed state were led to a reaction mixture storage tank through a pressure regulating valve, and oil and water were separated from each other in the reaction mixture storage tank. ZSM-5 zeolite (silica/alumina molar ratio=50) manufactured by Engelhard Co., Ltd. with addition of 20 wt % of an alumina binder was extrusion molded to a size of 1/16 inch in external diameter and 5 mm in length, and this was used as the catalyst. The height of the catalyst layer was 240 mm. The continuous reaction was carried out by an oil-water falling parallel flow sealing reaction method under the following conditions.
# The oil phase discharged into the reaction mixture storage tank was analyzed by gas chromatography to obtain the results of the reaction. At the time of starting of the reaction, only cyclohexene was fed, and after a lapse of 20 hours from the starting of the reaction, the starting material was changed to a mixed liquid of cyclohexene/ethylene glycol monophenyl ether=70/30 (weight ratio), and thereafter the reaction was continued for 150 hours.
# [5] = phenol-containing system, 120° C.; solvent-free system 3818; cited from earlier work
Structure (SMILES),Solubility in water (25° C.) [1],Solvent convertion rate ([2]; 1 hour),Solvent effect index [3],Distribution coefficient of cyclohexene [3],further results
CC1=CC(=O)CC(C)(C)C1 [Isophorone],1.2 g/100 ml,0.00%,2.19,1884,"Solubility in water (25° C.) ([1]; listed as IPN): 1.20 g/100 ml; change of the solvent in the hydration reaction ([2]; H-ZSM-5 zeolite-A, 1 hour): showed no change"
OCCc1ccccc1 [Phenethyl alcohol],2.00 g/100 ml,0.35%,2.24,1846,
"OCCOc1ccccc1 [Ethylene glycol monophenyl ether, ethylene glycol monophenyl ether]",2.70 g/100 ml,0.70%,2.46,1681,Solvent conversion rate ([4]; reaction time 25 Hr): 0.84%; Solvent conversion rate ([4]; reaction time 80 Hr): 0.63%; Solvent conversion rate ([4]; reaction time 150 Hr): 0.42%; conversion rate to ethylene glycol cyclohexylphenyl ether ([4]; under the hydration reaction conditions): less than 1%
"CC1CC(=O)CC(C)(C)C1 (centres unmarked) [3,3,5-Trimethylcyclohexanone]",0.80 g/100 ml,0.00%,2.14,1929,
Oc1ccccc1 [phenol],,,,,cyclohexene distribution coefficient (concentration in oil phase mol %/aqueous phase mol %) [5]: 680
"OCc1ccccc1 [benzyl alcohol, reference compound]",,,,,"conversion rate of the reaction solvent to dibenzyl ether ([2]; H-ZSM-5 zeolite-A, after 1 hour): 11.4%; conversion rate of the reaction solvent to dibenzyl ether ([2]; H-ZSM-5 zeolite-A, after 2 hours): 16.0%"
"O=C1CCCCC1 [cyclohexanone, reference compound]",,,,,solubility in water [1]: 8.7%

# Source: patent publication US6552235B2, “Process for the preparation of cyclohexanol” (Asahi Kasei Kabushiki Kaisha, priority 1999, dated 2003)
